Experimental data reported in ChEMBL document CHEMBL1122920, “Synthesis and pharmacological evaluation of cis-2,3,3a,4,5,6,7,7a-octahydro-3-oxoisoxazolo[5,4-c]pyridine: a structural analogue of the GABA agonist THIP” (J Med Chem, 1985).
pIC50: −log10 of the molar value.

Assays:
Mus musculus = assay: Tested for the antagonism of bicuculline -induced convulsions in female mice intraperitoneally; format: functional; details: ip, read-out: ID50 (the source's name)
[1] = molecular target: GABA-A receptor; anion channel; assay: Displacement of [3H]- muscimol in cerebellar tissue of male rats
Rattus norvegicus = species: Rattus norvegicus; assay: Tested for its GABA agonistic activity against spontaneous firing in explants from cerebellum of 2-4 day old rats; format: functional

SMILES | ED50 (Mus musculus) | pIC50 [1] | Decrease of spontaneous firing rate (Rattus norvegicus)
O=C1NOC2CNCCC12 (cis isomer) | > 56 mg/kg | < 6.00 | –
Oc1noc2c1CCNC2 [GABOXADOL] | 1.9 mg/kg | – | –
NCc1cc(O)no1 [MUSCIMOL] | 0.76 mg/kg | 8.52 | >=1e-06 M
